{"source": "patent US20040180953A1", "about": "“Crystalline form of phenylethanolamine, the preparation thereof and pharmaceutical compositions comprising the same” (priority 2001, published 2004)", "format_in_all_cases": "physicochemical", "key": {"[1]": {"test": "Drying comparison of wet filtration cake in an agitated filter drier", "method": "The drying, in an agitated filter drier, of a wet filtration cake of SR58611A of A form results, in less than two hours, in a change in crystalline form and in the production of a cake composed of 90% of C form. To return to the A form, it is then necessary to continue the drying at a temperature of greater than 60° C. with agitation for approximately 48 h. […] Furthermore, the shape of the crystals obtained (thick hexagonal plates) makes it possible to reduce the residual moisture content of the filtration cake to contents of less than 20% and in fact facilitates the drying of the product for the purpose of its use as medicamental active principle."}, "[2]": {"test": "Thermodynamic stability of the polymorphic forms maintained in solution or suspension", "details": "room temperature, or more generally less than or equal to 70° C.; whatever the solvent; hydrochloride", "method": "Furthermore, in addition to the possibility of having a purer and more homogeneous product, the B form can be obtained with better production efficiency, both with regard to crystallization and with regard to filtration and drying, in particular when it is prepared in propan-2-ol."}, "[3]": {"test": "Kinetic conversion of SR58611A polymorphic mixture to B form in propan-2-ol suspension", "method": "Polymorphic SR58611 hydrochloride (4.46 g) is suspended at ambient temperature in 0.3 litre of propan-2-ol. After maintaining for 70 h under isothermal conditions, the suspension is composed of SR58611A hydrochloride, B form, >96%. IR spectrum and X-ray diffraction are in agreement. Polymorphic SR58611 hydrochloride (95.2 g) is suspended at 70° C. in 0.3 litre of propan-2-ol. After maintaining for 12 h 30 under isothermal conditions, the suspension is composed of SR58611 hydrochloride, B form, >98%. IR spectrum and X-ray diffraction are in agreement."}}, "note": "Structures can show the parent of a compound that is named as a salt.", "data": [{"smiles": "CCOC(=O)COc1ccc2c(c1)C[C@@H](NC[C@H](O)c1cccc(Cl)c1)CC2.Cl", "note": "[A form, ethyl [(7S)-7-[(2R)-2-(3-chlorophenyl)-2-hydroxyethylamino]-5,6,7,8-tetrahydronaphth-2-yloxy]-acetate hydrochloride]", "values": [{"measurement": "C form content of the cake after change in crystalline form on drying", "setting": "[1]; agitated filter drier, wet filtration cake, in less than two hours", "value": 90, "unit": "%"}, {"measurement": "further drying time needed to return to the A form", "setting": "[1]; drying at greater than 60° C. with agitation", "value": "approximately 48 h"}, {"measurement": "thermodynamic stability relative to the other polymorphs", "setting": "[2]", "value": "end up by being converted to the B form"}]}, {"smiles": "CCOC(=O)COc1ccc2c(c1)C[C@@H](NC[C@H](O)c1cccc(Cl)c1)CC2.Cl", "note": "[B form, ethyl [(7S)-7-[(2R)-2-(3-chlorophenyl)-2-hydroxyethylamino]-5,6,7,8-tetrahydronaphth-2-yloxy]-acetate hydrochloride]", "values": [{"measurement": "change of crystalline form on drying", "setting": "[1]; drying of filtration cake", "value": "not changing crystalline form on drying"}, {"measurement": "residual moisture content of the filtration cake", "setting": "[1]; thick hexagonal plate crystals", "value": "less than 20%"}, {"measurement": "thermodynamic stability relative to the other polymorphs", "setting": "[2]", "value": "the most thermodynamically stable form"}]}, {"smiles": "CCOC(=O)COc1ccc2c(c1)C[C@@H](NC[C@H](O)c1cccc(Cl)c1)CC2.Cl", "note": "[C form, ethyl [(7S)-7-[(2R)-2-(3-chlorophenyl)-2-hydroxyethylamino]-5,6,7,8-tetrahydronaphth-2-yloxy]-acetate hydrochloride]", "values": [{"measurement": "thermodynamic stability relative to the other polymorphs", "setting": "[2]", "value": "end up by being converted to the B form"}]}, {"smiles": "CCOC(=O)COc1ccc2c(c1)C[C@@H](NC[C@H](O)c1cccc(Cl)c1)CC2", "note": "[Polymorphic SR58611 hydrochloride, N-[(2S)-7-ethoxycarbonylmethoxy-1,2,3,4-tetrahydronaphth-2-yl]-(2R)-(3-chlorophenyl)-2-hydroxyethanamine hydrochloride]", "values": [{"measurement": "B form content of the suspension after conversion", "setting": "[3]; suspended at 70° C. in propan-2-ol, 12 h 30 isothermal", "value": "> 98", "unit": "%"}, {"measurement": "B form content of the suspension after conversion", "setting": "[3]; suspended at ambient temperature in propan-2-ol, 70 h isothermal", "value": "> 96", "unit": "%"}]}]}
